Results from PMC10609924, “Cytotoxic Activity of Wild Plant and Callus Extracts of Ageratina pichinchensis and 2,3-Dihydrobenzofuran Isolated from a Callus Culture” (Pharmaceuticals, 2023).
In brackets after ≈: the same amount, converted by molar mass.

Experiments:
[1] = test system: PC-3 cells (human prostate carcinoma); test: Cytotoxic assay (CellTiter 96 AQueous One Solution), PC-3
Method: (§1) We evaluated the cytotoxic activity of the ethyl acetate and methanol extracts obtained from different parts of the wild plant A. pichinchensis, including its leaves, stems, and callus cultures. The extracts were evaluated using concentrations of 200, 100, 50, 25, and 12.5 µg/mL against various cell lines (Table 1), including human prostate carcinoma (PC-3), cervical cancer (HeLa), hepatocellular carcinoma (Huh-7), human hepatoma (HepG2) and breast tumor cells (MCF-7). These cell lines represent cell types that, unfortunately, have high incidence and mortality rates globally.
(§2) PC-3 (prostate), HeLa (cervical), MCF-7 (breast), and Huh-7 and HepG2 (hepatocellular) human cancer cell lines were purchased from ATCC (Manassas, VA, USA) (Figure 5). We also included an immortalized human epidermal keratinocyte line (HaCat) as a control of non-cancerous cells. […]
(§3) Cells (4 × 10^3 cells/well) were seeded in 96-well plates. […] Cell viability was determined by absorbance at 450 nm using an automated ELISA reader (Promega, Madison, WI, USA). […] Data were analyzed using the Prism 8.0 statistical program (Graphpad Software Inc., La Jolla, CA, USA) and the half-maximal inhibitory concentrations (IC50) were determined by regression analysis.

[2] = test system: MCF-7 cells (breast tumor cells); test: Cytotoxic assay (CellTiter 96 AQueous One Solution), MCF-7
Method: as §1, §2, §3

[3] = test system: HepG2 cells (human hepatoma); test: Cytotoxic assay (CellTiter 96 AQueous One Solution), HepG2
Method: as §1, §2, §3

[4] = test system: Huh-7 cells (hepatocellular carcinoma); test: Cytotoxic assay (CellTiter 96 AQueous One Solution), Huh-7
Method: as §1, §2, §3

[5] = test system: HeLa cells (cervical cancer); test: Cytotoxic assay (CellTiter 96 AQueous One Solution), HeLa
Method: as §1
PC-3 (prostate), HeLa (cervical), MCF-7 (breast), and Huh-7 and HepG2 (hepatocellular) human cancer cell lines were purchased from ATCC (Manassas, VA, USA) (Figure 5). We also included an immortalized human epidermal keratinocyte line (HaCat) as a control of non-cancerous cells. PC-3 was grown in RPMI-1640 medium (Sigma Aldrich, St. Louis, MO, USA), while Huh-7, HepG2, HeLa, and HaCat were grown in DMEM medium (Invitrogen, Thermo Fisher Scientific, Waltham, MA, USA) supplemented with 10% SFB and 2 mM glutamine. All cultures were incubated at 37 °C in 5% CO2.
Cells (4 × 10^3 cells/well) were seeded in 96-well plates. The cells were treated with the investigated samples (at 200, 100, 50, 25, and 12.5 µg/mL) and incubated at 37 °C in 5% CO2 for 48 h. Paclitaxel was used as a positive control. For determining the number of viable cells in proliferation we used a CellTiter 96® AQueous One Solution Cell Proliferation Assay kit (Promega, Madison, WI, USA), following the manufacturer’s instructions. Cell viability was determined by absorbance at 450 nm using an automated ELISA reader (Promega, Madison, WI, USA). Stock solutions of all compounds were prepared in DMSO at a maximum concentration of 0.5%. The experiments were conducted in triplicate in three independent experiments. Data were analyzed using the Prism 8.0 statistical program (Graphpad Software Inc., La Jolla, CA, USA) and the half-maximal inhibitory concentrations (IC50) were determined by regression analysis.

[6] = test system: HaCat cells (immortalized human epidermal keratinocytes); test: Cytotoxic assay (CellTiter 96 AQueous One Solution), HaCat selectivity control
Method: as §1, §2, §3

[7] = test system: PC-3, HeLa, Huh-7, HepG2, MCF-7 and HaCat cell lines; test: Cytotoxic assay, statements over the whole cell line panel; conditions: PTX-treated cell lines
Method: as §1, §2, §3

[8] = Cytotoxic assay (CellTiter 96 AQueous One Solution), HaCat selectivity control; conditions: human
Method: as §1, §2, §3

Row | Compound | Cytotoxic activity (IC50), PC-3 [1] | Cytotoxic activity (IC50), MCF-7 [2] | Cytotoxic activity (IC50), HepG2 [3] | Cytotoxic activity (IC50), Huh-7 [4] | Cytotoxic activity (IC50), HeLa [5] | Cytotoxic effect in words, HeLa [5] | Cytotoxic activity (IC50), HaCat [6] | IC50 values range in words [7] | IC50 ([1]; Homo sapiens, PC-3, 48 h, read-out: Cytotoxic activity (IC50), PC-3) | IC50 ([2]; Homo sapiens, MCF7, 48 h, read-out: Cytotoxic activity (IC50), MCF-7) | IC50 ([3]; Homo sapiens, HepG2, 48 h, read-out: Cytotoxic activity (IC50), HepG2) | IC50 ([4]; Homo sapiens, Huh-7, 48 h, read-out: Cytotoxic activity (IC50), Huh-7) | IC50 ([5]; Homo sapiens, HeLa, 48 h, read-out: Cytotoxic activity (IC50), HeLa) | IC50 at 48 h [8]
1 | (2S,3R)-5-acetyl-7,3-dihydroxy-2-(1-isopropenyl)-2,3-dihydrobenzofuran [compound 7] | 80.36 ± 4.63 µg/mL | 107.20 ± 1.52 µg/mL | 74.62 ± 2.02 µg/mL | 79.98 ± 3.78 µg/mL | 23.86 ± 2.5 µg/mL | remarkable effect on the inhibition of HeLa cells | 123.50 ± 15.17 µg/mL | – | – | – | – | – | – | –
2 | CC(=O)O[C@H]1C(=O)[C@@]2(C)[C@H]([C@H](OC(=O)c3ccccc3)[C@]3(O)C[C@H](OC(=O)[C@H](O)[C@@H](NC(=O)c4ccccc4)c4ccccc4)C(C)=C1C3(C)C)[C@]1(OC(C)=O)CO[C@@H]1C[C@@H]2O [Paclitaxel, paclitaxel] | – | – | – | – | – | – | – | nanomolar (nM) range | 0.013 ± 0.00196 µg/mL (≈ 0.0152 µM) | 0.018 ± 0.0035 µg/mL (≈ 0.0211 µM) | 8.57 ng/mL (≈ 0.01 µM) | 0.021 ± 0.00273 µg/mL (≈ 0.0246 µM) | 0.017 ± 0.00103 µg/mL (≈ 0.0199 µM) | 0.097 ± 0.0128 µg/mL (≈ 0.114 µM)
